{"source": "paper PMC11551755", "about": "“Structure-based discovery of first inhibitors targeting the helicase activity of human PIF1” (Nucleic Acids Research, 2024)", "target": "T1, FLhPIF1 (Homo sapiens, UniProt Q9H611)", "T1 construct": "Full length human PIF1 (FLhPIF1) was expressed and purified as a His-SUMO fusion; His-SUMO (cleaved yes); made in house; 'following similar protocols' to hPIF1HD (ArcticExpress BL21(DE3) E. coli)", "T1 sequence (Q9H611 1-641)": "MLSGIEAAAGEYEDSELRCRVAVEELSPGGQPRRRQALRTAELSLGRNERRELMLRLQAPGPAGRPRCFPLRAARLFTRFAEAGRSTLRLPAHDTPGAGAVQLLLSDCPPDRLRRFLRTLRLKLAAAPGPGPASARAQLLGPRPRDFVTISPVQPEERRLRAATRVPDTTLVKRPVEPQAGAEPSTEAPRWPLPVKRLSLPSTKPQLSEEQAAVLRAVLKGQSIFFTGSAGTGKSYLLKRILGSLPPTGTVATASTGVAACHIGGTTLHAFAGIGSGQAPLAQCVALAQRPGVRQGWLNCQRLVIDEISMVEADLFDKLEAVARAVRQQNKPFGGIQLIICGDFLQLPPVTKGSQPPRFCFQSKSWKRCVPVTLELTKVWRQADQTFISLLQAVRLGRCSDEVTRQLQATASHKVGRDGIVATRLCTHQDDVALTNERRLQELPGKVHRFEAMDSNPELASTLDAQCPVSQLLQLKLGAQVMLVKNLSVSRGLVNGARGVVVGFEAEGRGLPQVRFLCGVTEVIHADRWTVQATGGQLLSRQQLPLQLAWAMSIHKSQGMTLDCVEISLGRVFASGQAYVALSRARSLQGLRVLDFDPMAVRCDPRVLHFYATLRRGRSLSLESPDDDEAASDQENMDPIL", "test": "DNA-dependent ATPase assay", "type": "biochemical", "details": "1 mM compound, 25 nM FLhPIF1, 250 nM d(T)55, 10 min at 37°C", "experimental": "ATP hydrolysis was measured under helicase reaction conditions with 25 nM FLhPIF1 and 250 nM oligo d(T)55 and 0.0125 μM [γ-^32P]ATP (6000 Ci/mmol). Released phosphate was quantified using the charcoal binding assay of Iggo and Lane ([45]) after 10 min at 37°C.\nSupplementary Figure 11. ATPase activity determined with and without inhibitors. ATPase assays, 25 nM FLhPIF1, 250 nM d(T)55 ssDNA, were performed for 10 minutes at 37 °C under helicase reaction conditions, with and without 1 mM compound (n = 3). Compound 2 was not included in the analysis due to lack of available material. […] The data are broadly in agreement with the results of ssDNA binding EMSA except compound 6 (see discussion)."}
{"smiles": "Nc1nc(-c2ccc(C(=O)c3ccccc3)cc2)cs1", "note": "[Compound 6]", "values": [{"measurement": "inhibition of DNA-dependent ATPase", "value": "effective inhibitor of DNA-dependent ATPase"}]}
